Laboratory results published in patent publication US8574563B2 (Bristol-Myers Squibb Company, priority 2006, dated 2013).
pEC50: −log10 of the molar value. Like-named read-outs stand apart in the source and are kept apart here.

Test system: HCV 1b-377-neo replicon cells
Test: HCV replicon assay, HCV 1b-377-neo replicon cells (1b FRET)
Type: cell-based, Hepatitis C virus genotype 1b
Conditions: HCV 1b-377-neo replicon cells, HCV 1b genotype, read-out: EC50 range against HCV 1b (Table 2, Range)
How it was run: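 Compounds were tested in genotype 1b subgenomic replicon cells carrying a neomycin marker, alongside a matched replicon line with an NS5A Y2065H substitution that confers resistance to a reference NS5A inhibitor.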

Compound	pEC50 (Hepatitis C virus)	pEC50
COC(=O)N[C@@H](Cc1cn(Cc2ccccc2)cn1)C(=O)N1CCC[C@H]1c1ncc(-c2ccc(-c3ccc(-c4cnc([C@@H]5CCCN5C(=O)[C@H](Cc5cn(Cc6ccccc6)cn5)NC(=O)OC)[nH]4)cc3)cc2)[nH]1 [cj-154, methyl ((1S)-2-((2S)-2-(5-(4′-(2-((2S)-1-((2S)-3-(1-benzyl-1H-imidazol-4-yl)-2-((methoxycarbonyl)amino)propanoyl)-2-pyrrolidinyl)-1H-imidazol-5-yl)-4-biphenylyl)-1H-imidazol-2-yl)-1-pyrrolidinyl)-1-((1-benzyl-1H-imidazol-4-yl)methyl)-2-oxoethyl)carbamate]	9.00 to 12.00	
COC(=O)N[C@H]1CCC[C@@H]1C(=O)N1CCC[C@H]1c1ncc(-c2ccc(-c3ccc(-c4cnc([C@@H]5CCCN5C(=O)[C@H]5CCC[C@@H]5NC(=O)OC)[nH]4)cc3)cc2)[nH]1 [cj-155, dimethyl (4,4′-biphenyldiylbis(1H-imidazole-5,2-diyl(2S)-2,1-pyrrolidinediylcarbonyl(1S,2S)-2,1-cyclopentanediyl))biscarbamate]	7.00 to 9.00	
COCC[C@H](NC(=O)OC)C(=O)N1CCC[C@H]1c1ncc(-c2ccc(-c3ccc(-c4cnc([C@@H]5CCCN5C(=O)[C@H](CCOC)NC(=O)OC)[nH]4)cc3)cc2)[nH]1 [cj-156, methyl ((1S)-3-methoxy-1-(((2S)-2-(5-(4′-(2-((2S)-1-(N-(methoxycarbonyl)-O-methyl-L-homoseryl)-2-pyrrolidinyl)-1H-imidazol-5-yl)-4-biphenylyl)-1H-imidazol-2-yl)-1-pyrrolidinyl)carbonyl)propyl)carbamate]	9.00 to 12.00	
(1R)-N,N-dimethyl-2-((2S)-2-(5-(4′-(2-((2S)-1- ((2R)-2-(4-morpholinyl)-2-phenylacetyl)-2- pyrrolidinyl)-1H-imidazol-5-yl)-4-biphenylyl)- 1H-imidazol-2-yl)-1-pyrrolidinyl)-2-oxo-1- phenylethanamine [Example 89]		9.00 to 12.00
methyl (2-((2S)-2-(5-(4′-(2-((2S)-1-((2R)-2- (dimethylamino)-2-phenylacetyl)-2- pyrrolidinyl)-1H-imidazol-5-yl)-4-biphenylyl)- 1H-imidazol-2-yl)-1-pyrrolidinyl)-2- oxoethyl)carbamate [Example 91]		9.00 to 12.00
methyl ((1R)-2-((2S)-2-(5-(4′-(2-((2S)-1-(3- benzoylbenzyl)-2-pyrrolidinyl)-1H- imidazol-5-yl)-4-biphenylyl)-1H-imidazol-2- yl)-1-pyrrolidinyl)-2-oxo-1- phenylethyl)carbamate [Example 84-34]		7.00 to 9.00
